Source: ChEMBL document CHEMBL3885881, “DrugMatrix”

Organism: Rattus norvegicus
Assay: DrugMatrix - Regimen: Daily Repeat
Format: toxicity, organism-based, Sprague-Dawley
Parameters: regimen Daily Repeat, gender Male, age 6-8 weeks
Settings: in vivo, po, 1 mg/kg, route oral GAVAGE, dose level Low, vehicle .5 % CMC; for ABSOLUTE BASOPHIL / ABSOLUTE EOSINOPHIL / ABSOLUTE LYMPHOCYTE / ABSOLUTE MONOCYTE / ABSOLUTE SEGMENTED NEUTROPHIL / BASOPHIL / EOSINOPHIL / ERYTHROCYTE COUNT / HEMATOCRIT / HEMOGLOBIN / LEUKOCYTE COUNT / LYMPHOCYTE / MEAN CORPUSCULAR HEMOGLOBIN / MEAN CORPUSCULAR HEMOGLOBIN CONCENTRATION / MEAN CORPUSCULAR VOLUME / MONOCYTE / NEUTROPHIL / NUCLEATED RED BLOOD CELLS / PLATELET COUNT: tissue Blood; for ALANINE AMINOTRANSFERASE / ALBUMIN / ALKALINE PHOSPHATASE / ASPARTATE AMINOTRANSFERASE / BLOOD UREA NITROGEN / CARBON DIOXIDE / CHLORIDE / CHOLESTEROL / CREATINE PHOSPHOKINASE / CREATININE / GLUCOSE / LACTATE DEHYDROGENASE / LIPASE / PHOSPHORUS / POTASSIUM / SODIUM / TOTAL BILIRUBIN / TOTAL PROTEIN / URIC ACID: tissue Plasma

CCOC(=O)[C@H](CCc1ccccc1)N[C@@H](C)C(=O)N1[C@H](C(=O)O)C[C@@H]2CCC[C@@H]21
ABSOLUTE BASOPHIL (72 h, time 3 day): 0 CELLS/uL
ABSOLUTE EOSINOPHIL (72 h, time 3 day): 0 CELLS/uL
ABSOLUTE LYMPHOCYTE (72 h, time 3 day): 13012 CELLS/uL
ABSOLUTE MONOCYTE (72 h, time 3 day): 125.67 CELLS/uL
ABSOLUTE SEGMENTED NEUTROPHIL (72 h, time 3 day): 829 CELLS/uL
BASOPHIL (72 h, time 3 day): 0%
EOSINOPHIL (72 h, time 3 day): 0%
ERYTHROCYTE COUNT (72 h, time 3 day): 5.51 x10E6/uL
HEMATOCRIT (72 h, time 3 day): 35.1%
HEMOGLOBIN (72 h, time 3 day): 14.07 G/DL
LEUKOCYTE COUNT (72 h, time 3 day): 13.97 x10E3/uL
LYMPHOCYTE (72 h, time 3 day): 92.67%
MEAN CORPUSCULAR HEMOGLOBIN (72 h, time 3 day): 25.53 pg
MEAN CORPUSCULAR HEMOGLOBIN CONCENTRATION (72 h, time 3 day): 40.07 G/DL
MEAN CORPUSCULAR VOLUME (72 h, time 3 day): 63.73 fL
MONOCYTE (72 h, time 3 day): 1%
NEUTROPHIL (72 h, time 3 day): 6.33%
NUCLEATED RED BLOOD CELLS (72 h, time 3 day): 0 /100WBC
PLATELET COUNT (72 h, time 3 day): 1322.67 x10E3/uL
ALANINE AMINOTRANSFERASE (72 h, time 3 day): 44.33 u/L
ALBUMIN (72 h, time 3 day): 4.53 G/DL
ALKALINE PHOSPHATASE (72 h, time 3 day): 320.33 u/L
ASPARTATE AMINOTRANSFERASE (72 h, time 3 day): 82 u/L
BLOOD UREA NITROGEN (72 h, time 3 day): 17 mg/dL
CARBON DIOXIDE (72 h, time 3 day): 28 mmol/L
CHLORIDE (72 h, time 3 day): 100.33 MEQ/L
CHOLESTEROL (72 h, time 3 day): 74.33 mg/dL
CREATINE PHOSPHOKINASE (72 h, time 3 day): 223 u/L
CREATININE (72 h, time 3 day): 0.15 mg/dL
GLUCOSE (72 h, time 3 day): 156.33 mg/dL
LACTATE DEHYDROGENASE (72 h, time 3 day): 243 u/L
LIPASE (72 h, time 3 day): 9.33 u/L
PHOSPHORUS (72 h, time 3 day): 13.7 mg/dL
POTASSIUM (72 h, time 3 day): 7.23 MEQ/L
SODIUM (72 h, time 3 day): 146.6 MEQ/L
TOTAL BILIRUBIN (72 h, time 3 day): 0.27 mg/dL
TOTAL PROTEIN (72 h, time 3 day): 6.27 G/DL
URIC ACID (72 h, time 3 day): 1.87 mg/dL
ABSOLUTE BASOPHIL (120 h, time 5 day): 0 CELLS/uL
ABSOLUTE EOSINOPHIL (120 h, time 5 day): 73 CELLS/uL
ABSOLUTE LYMPHOCYTE (120 h, time 5 day): 14658 CELLS/uL
ABSOLUTE MONOCYTE (120 h, time 5 day): 332.67 CELLS/uL
ABSOLUTE SEGMENTED NEUTROPHIL (120 h, time 5 day): 1636.33 CELLS/uL
BASOPHIL (120 h, time 5 day): 0%
EOSINOPHIL (120 h, time 5 day): 0.33%
ERYTHROCYTE COUNT (120 h, time 5 day): 5.38 x10E6/uL
HEMATOCRIT (120 h, time 5 day): 35.13%
HEMOGLOBIN (120 h, time 5 day): 13.27 G/DL
LEUKOCYTE COUNT (120 h, time 5 day): 16.7 x10E3/uL
LYMPHOCYTE (120 h, time 5 day): 88.33%
MEAN CORPUSCULAR HEMOGLOBIN (120 h, time 5 day): 24.7 pg
MEAN CORPUSCULAR HEMOGLOBIN CONCENTRATION (120 h, time 5 day): 37.8 G/DL
MEAN CORPUSCULAR VOLUME (120 h, time 5 day): 65.37 fL
MONOCYTE (120 h, time 5 day): 1.67%
NEUTROPHIL (120 h, time 5 day): 9.67%
NUCLEATED RED BLOOD CELLS (120 h, time 5 day): 0 /100WBC
PLATELET COUNT (120 h, time 5 day): 1368.33 x10E3/uL
ALANINE AMINOTRANSFERASE (120 h, time 5 day): 58.33 u/L
ALBUMIN (120 h, time 5 day): 4.37 G/DL
ALKALINE PHOSPHATASE (120 h, time 5 day): 395 u/L
ASPARTATE AMINOTRANSFERASE (120 h, time 5 day): 74.67 u/L
BLOOD UREA NITROGEN (120 h, time 5 day): 20 mg/dL
CARBON DIOXIDE (120 h, time 5 day): 28.67 mmol/L
CHLORIDE (120 h, time 5 day): 101.67 MEQ/L
CHOLESTEROL (120 h, time 5 day): 69.67 mg/dL
CREATINE PHOSPHOKINASE (120 h, time 5 day): 158.67 u/L
CREATININE (120 h, time 5 day): 0.2 mg/dL
GLUCOSE (120 h, time 5 day): 153.67 mg/dL
LACTATE DEHYDROGENASE (120 h, time 5 day): 81.67 u/L
LIPASE (120 h, time 5 day): 8.33 u/L
PHOSPHORUS (120 h, time 5 day): 12.57 mg/dL
POTASSIUM (120 h, time 5 day): 6.7 MEQ/L
SODIUM (120 h, time 5 day): 146.17 MEQ/L
TOTAL BILIRUBIN (120 h, time 5 day): 0.2 mg/dL
TOTAL PROTEIN (120 h, time 5 day): 6.03 G/DL
URIC ACID (120 h, time 5 day): 1.43 mg/dL
